Data reported in patent US11999723B2, “Pyrazole-containing macrophage migration inhibitory factor inhibitors” (priority 2018, dated 2024).
Read-outs that look alike come from different tables or passages of the source.

Target: MIF (Homo sapiens (Human), UniProt P14174)
Assay: HPP tautomerase assay (inhibition of the tautomerase activity of MIF)
Assay type: biochemical
Conditions: for lowering of the Ki relative to 8n: HPP tautomerase assay
Protocol: Inhibition of the tautomerase activity of MIF was measured using the substrate 4-hydroxyphenyl pyruvic acid (HPP) in a procedure largely adapted from previous reports. A solution of HPP (10 mM) in acetate buffer (0.5 M ammonium acetate, pH adjusted to 6.0) was prepared and allowed to incubate overnight in the dark at room temperature to allow for equilibration of the keto and enol forms. Following the incubation period, the HPP solution was stored at 4° C. and used for no more than a week. […] A negative control (containing water and DMSO in lieu of protein and inhibitor, respectively) and a positive control (containing DMSO in lieu of inhibitor) were also prepared. The reaction began upon the addition of HPP solution (final concentration: 1.0 mM and 2.5 mM). […] Absorbance was measured three times for each [inhibitor]-[HPP] combination. […] Reported Ki values represent the average value obtained from two assays performed on different days. (R)-ISO-1 (purchased from Santa Cruz Biotechnology) was used as a control.
Recombinant human MIF was expressed and purified according to published protocols. Briefly, for the purification of MIF, E. coli cell pellets were suspended in lysis buffer (20 mM Tris, pH 7.5; 20 mM sodium chloride; 10% glycerol; 2 mM magnesium chloride; 1 cOmplete mini protease inhibitor cocktail tablet per 250 mL of buffer). The solution was sonicated and centrifuged at 27,000G for 30 mins. The supernatant was filtered through a 0.22 μm syringe filter and loaded on a GE Healthcare Hi-Trap SP HP column in sequence with a GE Healthcare Hi-Trap Q SP column equilibrated with a buffer composed of 20 mM NaCl and 20 mM Tris, pH 7.5. […] To achieve highest purity, the flow-through was further purified with a GE Healthcare Superdex 200 column. The purified protein was concentrated with a 10 kDa centrifugal filter unit to 30 mg/mL, flash-frozen in liquid nitrogen, and stored at −80° C.
As in prior studies, the inhibition constants Ki were determined using HPP as the substrate. […] In addition, the aqueous solubilities of several compounds were measured with a shake-flask procedure.

[1] = HPP as substrate, MIF tautomerase, read-out: Experimental inhibition constants, Ki
[2] = Table 3, HPP as substrate, unit inferred, read-out: HPP Ki

MIF, sequence (P14174 2-115): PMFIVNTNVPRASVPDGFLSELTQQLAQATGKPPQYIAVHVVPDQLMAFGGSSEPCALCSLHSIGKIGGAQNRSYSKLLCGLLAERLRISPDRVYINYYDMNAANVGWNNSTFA

Compound | Ki [1] | Ki [2] | further results
Cc1cc(C)cc(-c2cccc(Oc3ccc(-c4c[nH]nc4F)cc3C(=O)O)c2)c1 [Compound 8v, 2-((3′,5′-Dimethyl-[1,1′-biphenyl]-3-yl)oxy)-5-(3-fluoro-1H-pyrazol-4-yl)benzoic acid] | 0.24 µM |  | 
O=C(O)c1cc(-c2cn[nH]c2)ccc1Oc1cc2c3c(cccc3c1)CC2 [Compound 8l, 2-((1,2-Dihydroacenaphthylen-4-yl)oxy)-5-(1H-pyrazol-4-yl)benzoic acid] | 1.1 µM |  | 
O=C(O)c1cc(-c2c[nH]nc2F)ccc1Oc1cccc(F)c1 [Compound 9t, 5-(3-fluoro-1H-pyrazol-4-yl)-2-(3-fluorophenoxy)benzoic acid] |  | 2.1 µM | 
O=C(O)c1cc(-c2cn[nH]c2)ccc1Oc1cccc(Cl)c1 [Compound 9f, 2-(3-chlorophenoxy)-5-(1H-pyrazol-4-yl)benzoic acid] |  | 20 µM | 
O=C(O)c1cc(-c2cn[nH]c2)ccc1Oc1ccc2ccoc2c1 [Compound 9p, 2-(benzofuran-6-yloxy)-5-(1H-pyrazol-4-yl)benzoic acid] |  | 1.5 µM | 
O=C(O)c1cc(-c2c[nH]nc2F)ccc1Oc1cc2c3c(cccc3c1)CC2 [Compound 9v, 2-((1,2-dihydroacenaphthylen-4-yl)oxy)-5-(3-fluoro-1H-pyrazol-4-yl)benzoic acid] |  | 0.1 µM | 
O=C(O)c1cc(-c2cn[nH]c2)ccc1-c1cccc2ccccc12 [Compound 6b, 2-(Naphthalen-1-yl)-5-(1H-pyrazol-4-yl)benzoic acid] | 19.5 µM |  | 
O=C(O)c1cc(-c2c[nH]nc2F)ccc1Oc1ccc(-c2ccccc2)cc1 [Compound 8t, 2-([1,1′-Biphenyl]-4-yloxy)-5-(3-fluoro-1H-pyrazol-4-yl)benzoic acid] | 0.35 µM |  | 
CCc1cccc2cc(Oc3ccc(-c4c[nH]nc4F)cc3C(=O)O)ccc12 [Compound 8p, 2-((5-Ethylnaphthalen-2-yl)oxy)-5-(3-fluoro-1H-pyrazol-4-yl)benzoic acid] | 0.17 µM |  | lowering of the Ki relative to 8n: 3 fold
O=C(O)c1cc(-c2c[nH]nc2F)ccc1Oc1cccc(C(F)(F)F)c1 [Compound 9w, 5-(3-fluoro-1H-pyrazol-4-yl)-2-(3-(trifluoromethyl)phenoxy) benzoic acid] |  | 0.71 µM | 
O=C(O)c1cc(-c2cn[nH]c2)ccc1-c1ccc2ccccc2c1 [Compound 6c, 2-(Naphthalen-2-yl)-5-(1H-pyrazol-4-yl)benzoic acid] | 5.4 µM |  | Ki: 5 µM
Cc1ccc(-c2cn[nH]c2)cc1C(=O)O [Compound 9e, 2-methyl-5-(1H-pyrazol-4-yl)benzoic acid] |  | 60 µM | 
O=C(O)c1cc(-c2cn[nH]c2)ccc1Oc1cccc(F)c1 [Compound 8e, 2-(3-Fluorophenoxy)-5-(1H-pyrazol-4-yl)benzoic acid] | 1.7 µM |  | 
Cc1ccc2ccc(Oc3ccc(-c4cn[nH]c4)cc3C(=O)O)cc2c1 [Compound 9u, 2-((7-methylnaphthalen-2-yl)oxy)-5-(1H-pyrazol-4-yl)benzoic acid] |  | 1.9 µM | 
CCc1ccc2c(C3CC3)cc(Oc3ccc(-c4c[nH]nc4F)cc3C(=O)O)cc2c1 [Compound 8s, 2-((4-Cyclopropyl-7-ethylnaphthalen-2-yl)oxy)-5-(3-fluoro-1H-pyrazol-4-yl)benzoic acid] | 0.066 µM |  | 
CN(c1ccc2ccccc2c1)c1ccc(-c2cn[nH]c2)cc1C(=O)O [Compound 7b, 2-(Methyl(naphthalen-2-yl)amino)-5-(1H-pyrazol-4-yl)benzoic acid] | 4.2 µM |  | 
O=C(O)c1cc(-c2c[nH]nc2F)ccc1Oc1cccc2ccccc12 [Compound 8m, 5-(3-Fluoro-1H-pyrazol-4-yl)-2-(naphthalen-1-yloxy)benzoic acid] | 0.48 µM |  | 
O=C(O)c1cc(-c2cn[nH]c2)ccc1Oc1cccc2ccoc12 [Compound 9m, 2-(benzofuran-7-yloxy)-5-(1H-pyrazol-4-yl)benzoic acid] |  | 3.7 µM | 
O=C(O)c1cc(-c2cn[nH]c2)ccc1[S+]([O-])c1ccccc1 (stereo not drawn) [Compound 9r, 2-(phenylsulfinyl)-5-(1H-pyrazol-4-yl)benzoic acid] |  | 13 µM | 
O=C(O)c1cc(-c2cn[nH]c2)ccc1Oc1cc2c3c(cccc3c1)C=C2 [Compound 9q, 2-(acenaphthylen-4-yloxy)-5-(1H-pyrazol-4-yl)benzoic acid] |  | 1.5 µM | 
COc1ccc(Oc2ccc(-c3cn[nH]c3)cc2C(=O)O)cc1 [Compound 9h, 2-(4-methoxyphenoxy)-5-(1H-pyrazol-4-yl)benzoic acid] |  | 2.3 µM | 

Compound | Ki [1] | Ki [2] | further results
O=C(O)c1cc(-c2cn[nH]c2)ccc1-c1ccccc1 [Compound 6a, 4-(1H-pyrazol-4-yl)-[1,1′-biphenyl]-2-carboxylic acid] | 20.6 µM |  | 
O=C(O)c1cc(-c2c[nH]nc2F)ccc1Oc1ccc2c(C3CC3)cccc2c1 [Compound 9z, 2-((5-cyclopropylnaphthalen-2-yl)oxy)-5-(3-fluoro-1H-pyrazol-4-yl)benzoic acid] |  | 0.11 µM | 
O=C(O)c1cc(-c2c[nH]nc2F)ccc1Oc1cccc(-c2ccc(CCN3CCOCC3)cc2)c1 [Compound 9bb, 5-(3-fluoro-1H-pyrazol-4-yl)-2-((4′-(2-morpholinoethyl)-[1,1′-biphenyl]-3-yl)oxy)benzoic acid] |  | 0.33 µM | 
O=C(O)c1cc(-c2c[nH]nc2F)ccc1Oc1cccc(-c2ccccc2)c1 [Compound 8u, 2-([1,1′-Biphenyl]-3-yloxy)-5-(3-fluoro-1H-pyrazol-4-yl)benzoic acid] | 0.13 µM |  | 
Cc1cccc(Oc2ccc(-c3cn[nH]c3)cc2C(=O)O)c1 [Compound 8c, 5-(1H-Pyrazol-4-yl)-2-(m-tolyloxy)benzoic acid] | 3.8 µM |  | 
O=C(O)c1cccc(Oc2ccc(-c3cn[nH]c3)cc2C(=O)O)c1 [Compound 9n, 2-(3-carboxyphenoxy)-5-(1H-pyrazol-4-yl)benzoic acid] |  | 9.4 µM | 
Cc1n[nH]cc1-c1ccc(Oc2ccc3ccccc3c2)c(C(=O)O)c1 [Compound 9cc, 5-(3-methyl-1H-pyrazol-4-yl)-2-(naphthalen-2-yloxy)benzoic acid] |  | 15 µM | 
CCc1cc(Oc2ccc(-c3c[nH]nc3F)cc2C(=O)O)cc2ccccc12 [Compound 8o, 2-((4-Ethylnaphthalen-2-yl)oxy)-5-(3-fluoro-1H-pyrazol-4-yl)benzoic acid] | 0.15 µM |  | lowering of the Ki relative to 8n: 3 fold
Cc1ccccc1Oc1ccc(-c2cn[nH]c2)cc1C(=O)O [Compound 8b, 5-(1H-Pyrazol-4-yl)-2-(o-tolyloxy)benzoic acid] | 4.3 µM |  | 
O=C(O)c1cc(-c2cn[nH]c2)ccc1Oc1cc2ccccc2c2ccccc12 [Compound 8j, 2-(Phenanthren-9-yloxy)-5-(1H-pyrazol-4-yl)benzoic acid] | 2.3 µM |  | 
CCc1ccc2ccc(Oc3ccc(-c4c[nH]nc4F)cc3C(=O)O)cc2c1 [Compound 8q, 2-((7-Ethylnaphthalen-2-yl)oxy)-5-(3-fluoro-1H-pyrazol-4-yl)benzoic acid] | 0.14 µM |  | lowering of the Ki relative to 8n: 3 fold
O=C(O)c1cc(-c2c[nH]nc2F)ccc1Oc1ccc2c(c1)CCCC2 [Compound 9y, 5-(3-fluoro-1H-pyrazol-4-yl)-2-((5,6,7,8-tetrahydronaphthalen-2-yl)oxy)benzoic acid] |  | 0.26 µM | 
O=C(O)c1cc(-c2c[nH]nc2F)ccc1Oc1ccc2ccc(C3CC3)cc2c1 [Compound 9x, 2-((7-cyclopropylnaphthalen-2-yl)oxy)-5-(3-fluoro-1H-pyrazol-4-yl)benzoic acid] |  | 0.15 µM | 
Cc1ccc(Oc2ccc(-c3cn[nH]c3)cc2C(=O)O)cc1 [Compound 8d, 5-(1H-Pyrazol-4-yl)-2-(p-tolyloxy)benzoic acid] | 7 µM |  | 
CS(=O)(=O)c1cc(-c2cn[nH]c2)ccc1Oc1ccc2ccccc2c1 [Compound 8h, 4-(3-(Methylsulfonyl)-4-(naphthalen-2-yloxy)phenyl)-1H-pyrazole] | 6.4 µM |  | 
O=C(O)c1cc(-c2cn[nH]c2)ccc1Oc1ccc2occc2c1 [Compound 9o, 2-(benzofuran-5-yloxy)-5-(1H-pyrazol-4-yl)benzoic acid] |  | 3.8 µM | 
O=C(O)c1cc(-c2c[nH]nc2F)ccc1Oc1ccc2ccoc2c1 [Compound 9s, 2-(benzofuran-6-yloxy)-5-(3-fluoro-1H-pyrazol-4-yl)benzoic acid] |  | 0.57 µM | 
O=C(O)c1cc(-c2c[nH]nc2F)ccc1Oc1cccc(-c2ncccn2)c1 [Compound 9aa, 5-(3-fluoro-1H-pyrazol-4-yl)-2-(3-(pyrimidin-2-yl)phenoxy)benzoic acid] |  | 0.23 µM | 
CC(=O)NCCc1ccc(Oc2ccc(-c3cn[nH]c3)cc2C(=O)O)cc1 [Compound 9l, 2-(4-(2-acetamidoethyl)phenoxy)-5-(1H-pyrazol-4-yl)benzoic acid] |  | 11 µM | 
O=C(O)c1cc(-c2cn[nH]c2)ccc1Nc1ccccc1 [Compound 7a, 2-(Phenylamino)-5-(1H-pyrazol-4-yl)benzoic acid] | 12.7 µM |  | 
